Test results published in paper PMC10740425, “How Deep Learning in Antiviral Molecular Profiling Identified Anti-SARS-CoV-2 Inhibitors” (Biomedicines, 2023).

Columns and labels:
SARS-CoV-2 [1] = conditions: Calu-3 cells, 5 µM, pre-treated 2 h, MOI 0.1, 72 h
Calu-3 cells = conditions: uninfected Calu-3 cells, concentrations up to 10 µM, normalized to DMSO
SARS-CoV-2 [2] = type: cell-based; conditions: Calu-3 cells, treated 1 h post-infection, up to 10 µM, 72 h
[3] = Mouse infection model, body weight changes; type: in vivo, BALB/C mice; conditions: infected mice, 5 mg/kg intranasally, four-day observation

Cn1cnc([N+](=O)[O-])c1Sc1ncnc2nc[nH]c12 [azathioprine]
antiviral activity (intracellular virus, immunofluorescence staining) (SARS-CoV-2 [1]): antiviral activity comparable to established nucleoside analog inhibitors
cellular toxicity (Calu-3 cells): low cellular toxicity
viral progeny / inhibitory effect (plaque assay, Western blotting) (SARS-CoV-2 [2]): significant reduction in viral progeny
weight changes versus control group [3]: no significant difference in weight changes

CC(C)C(=O)OC[C@H]1O[C@@H](n2ccc(NO)nc2=O)[C@H](O)[C@@H]1O [molnupiravir]
viral progeny / inhibitory effect (plaque assay, Western blotting) (SARS-CoV-2 [2]): moderate inhibitory effects

O=P(O)(O)OC[C@H]1O[C@@H](n2cnc3c(S)ncnc32)[C@H](O)[C@@H]1O [thioinosinic acid]
viral progeny / inhibitory effect (plaque assay, Western blotting) (SARS-CoV-2 [2]): notable antiviral efficacy
weight changes versus control group [3]: no significant difference in weight changes
